Literature values, collected in patent US9517201B2, “Nanocarrier and nanogel compositions” (RUTGERS, THE STATE UNIVERSITY OF NEW JERSEY, priority 2008, dated 2016).
Structures can show the parent of a compound that is named as a salt.

solubility of Doxorubicin Hydrochloride in water: ~10000 µg/mL
Compound: COc1cccc2c1C(=O)c1c(O)c3c(c(O)c1C2=O)C[C@@](O)(C(=O)CO)C[C@@H]3O[C@H]1C[C@H](N)[C@H](O)[C@H](C)O1 [Doxorubicin Hydrochloride, Doxorubicin hydrochloride]
